Reference: paper PMC12679610, “Impact of supersaturation on growth, critical radius, and size in neomycin nanoparticle crystallization using anti-solvent and CTAB” (RSC Advances, 2025)

Columns and labels:
[1] = Solubility of neomycin sulfate in water-acetone in the presence of CTAB; type: physicochemical
Description: (§1) In this section, the method for the synthesis of neomycin nanoparticles is explained in detail. First, an exact amount of neomycin powder (purity ≥ 95%) was weighed using a digital analytical balance (accuracy: […]) based on the desired equilibrium concentration. The weighed neomycin was then added to 10 g of double-distilled water (25 °C). To ensure complete dissolution, the mixture was homogenized using a magnetic stirrer at controlled speeds of 300, 350, 400, and 450 rpm for 20 minutes. This range of stirring speeds was selected to investigate the effect of shear force on solution homogeneity. After confirming the homogeneity of the neomycin solution, a predetermined amount of CTAB surfactant with a concentration established from prior studies was added to the beaker. To achieve optimal mixing, the stirring system was activated at a constant speed between 300 and 450 rpm, and the mixing process continued until equilibrium was reached. The solution temperature was continuously monitored using a calibrated digital thermometer (±0.1 °C). A turbidity sensor was installed 2 cm from the crystallizer wall to measure changes in turbidity. Pure acetone (HPLC grade) was added dropwise (0.02 mL per drop) at 5-minute intervals. The first signs of physical change (e.g., localized cloudiness) were recorded as the initial saturation point. Acetone addition continued until stable turbidity (supersaturation) was achieved under isothermal conditions (25 °C). The induction time (the interval between initial saturation and supersaturation), as clearly depicted in Fig. 1, Section C (the induction time segment of steps 1 to 4), was measure using a synchronized turbidimeter and reaction timer data. To ensure reproducibility, the entire process was repeated in four independent trials under controlled conditions (constant temperature, humidity, and lighting).
This study investigated the solubility enhancement of neomycin in the presence of CTAB stabilizer through controlled dynamic shock application. In contrast to the reference study,[29] which utilized PVP at a mixing speed of 300 rpm, the present experimental design involved the addition of 0.3 g neomycin to a 10 g solvent–antisolvent mixture under 350 rpm agitation, incorporating intermittent dynamic shocks consisting of 3-second pulses at 380 rpm. […] This significant improvement stems from synergistic effects between: (1) CTAB's molecular interactions (ionic complexation with neomycin molecules, surface tension reduction, and stable colloidal environment through spherical micelle formation) and (2) dynamic shock-induced phenomena (enhanced antisolvent penetration and uniform stabilizer distribution).[73] […] The findings underscore the critical importance of concurrent optimization of physicochemical parameters in antisolvent crystallization processes for pharmaceutical nanoparticles.[74]
This study comprehensively investigated the influence of CTAB surfactant on neomycin crystallization. […] The supersaturation (S), as the primary driving force, directly affects the induction time, critical radius, growth rate, solubility, nanoparticle size, and nucleation mechanism.[33] CTAB operates through selective adsorption on crystalline surfaces, substantially influencing the nucleation pathway.[75,76] […] Quantitative data for these parameters are presented in Table 2, with the growth rate (intensity %) and nanoparticle size data being experimentally derived from DLS analysis.

[2] = Induction time measurement by in situ turbidimeter (antisolvent crystallization); type: physicochemical; details: CTAB 0.6 g kg^−1, 25 °C
Description: as §1
Induction time represents a key parameter in crystallization processes, being predominantly influenced by three factors of supersaturation, temperature, and agitation rate.[29,32] This parameter characterizes the time interval between the onset of initial physical changes (saturated state) and the complete formation of a turbid phase (supersaturated state) within the system. Investigations indicate that both the optimal agitation speed and the application of dynamic shock have a significant influence on the system's supersaturation level.[29,33,35,36] A sudden increase in agitation rate initially induces localized supersaturation reduction through turbulence generation at the interface between unstable and metastable zones. […] CTAB modulates the process by reducing surface energy and stabilizing subcritical clusters, which shortens the nucleation time and broadened the metastable zone. Agitation dynamics initially cause a temporary decrease in localized supersaturation (dynamic shock), followed by a stabilization phase that enables controlled crystal growth.
Methodologically, induction time was measured using both visual observation and in situ turbidimetry.

Which results are given for `NC[C@@H]1O[C@H](O[C@H]2[C@@H](O)[C@H](O[C@@H]3[C@@H](O)[C@H](N)C[C@H](N)[C@H]3O[C@H]3O[C@H](CN)[C@@H](O)[C@H](O)[C@H]3N)O[C@@H]2CO)[C@H](N)[C@@H](O)[C@@H]1O.O=S(=O)(O)O` [neomycin sulfate]?
Solubility ([1]; 300 rpm, initial neomycin 20 g kg^−1, S 1.18, CTAB 0.6 g kg^−1, 25 °C): 17 g/kg; Solubility ([1]; 300 rpm, initial neomycin 20 g kg^−1, S 1.21, CTAB 0.6 g kg^−1, 25 °C): 16 g/kg; Solubility ([1]; 300 rpm, initial neomycin 20 g kg^−1, S 1.33, CTAB 0.6 g kg^−1, 25 °C): 15 g/kg; Solubility ([1]; 300 rpm, initial neomycin 20 g kg^−1, S 1.45, CTAB 0.6 g kg^−1, 25 °C): 13.8 g/kg; Solubility ([1]; 300 rpm, initial neomycin 20 g kg^−1, S 1.66, CTAB 0.6 g kg^−1, 25 °C): 12 g/kg; Solubility ([1]; 350 rpm, initial neomycin 30 g kg^−1, S 1.2, CTAB 0.6 g kg^−1, 25 °C): 25 g/kg; Solubility ([1]; 350 rpm, initial neomycin 30 g kg^−1, S 1.25, CTAB 0.6 g kg^−1, 25 °C): 24 g/kg; Solubility ([1]; 350 rpm, initial neomycin 30 g kg^−1, S 1.28, CTAB 0.6 g kg^−1, 25 °C): 23.5 g/kg; Solubility ([1]; 350 rpm, initial neomycin 30 g kg^−1, S 1.43, CTAB 0.6 g kg^−1, 25 °C): 21.1 g/kg; Solubility ([1]; 400 rpm, initial neomycin 40 g kg^−1, S 1.29, CTAB 0.6 g kg^−1, 25 °C): 31 g/kg; Solubility ([1]; 400 rpm, initial neomycin 40 g kg^−1, S 1.379, CTAB 0.6 g kg^−1, 25 °C): 29 g/kg; Solubility ([1]; 400 rpm, initial neomycin 40 g kg^−1, S 1.48, CTAB 0.6 g kg^−1, 25 °C): 27 g/kg; Solubility ([1]; 400 rpm, initial neomycin 40 g kg^−1, S 1.66, CTAB 0.6 g kg^−1, 25 °C): 24 g/kg; Solubility ([1]; 400 rpm, initial neomycin 40 g kg^−1, S 1.9, CTAB 0.6 g kg^−1, 25 °C): 21 g/kg; Solubility ([1]; 450 rpm, initial neomycin 50 g kg^−1, S 1.351, CTAB 0.6 g kg^−1, 25 °C): 37 g/kg; Solubility ([1]; 450 rpm, initial neomycin 50 g kg^−1, S 1.47, CTAB 0.6 g kg^−1, 25 °C): 34 g/kg; Solubility ([1]; 450 rpm, initial neomycin 50 g kg^−1, S 1.666, CTAB 0.6 g kg^−1, 25 °C): 30 g/kg; Solubility ([1]; 450 rpm, initial neomycin 50 g kg^−1, S 1.785, CTAB 0.6 g kg^−1, 25 °C): 28 g/kg; Induction time ([2]; 300 rpm, initial neomycin 20 g kg^−1, S 1.18): 112 s; Induction time ([2]; 300 rpm, initial neomycin 20 g kg^−1, S 1.33): 91 s; Induction time ([2]; 300 rpm, initial neomycin 20 g kg^−1, S 1.45): 86 s; Induction time ([2]; 300 rpm, initial neomycin 20 g kg^−1, S 1.66): 79 s; Induction time ([2]; 350 rpm, initial neomycin 30 g kg^−1, S 1.2): 101 s; Induction time ([2]; 350 rpm, initial neomycin 30 g kg^−1, S 1.25): 94 s; Induction time ([2]; 350 rpm, initial neomycin 30 g kg^−1, S 1.28): 89 s; Induction time ([2]; 350 rpm, initial neomycin 30 g kg^−1, S 1.43): 81 s; Induction time ([2]; 350 rpm, initial neomycin 30 g kg^−1, S 1.67): 74 s; Induction time ([2]; 400 rpm, initial neomycin 40 g kg^−1, S 1.29): 99 s; Induction time ([2]; 400 rpm, initial neomycin 40 g kg^−1, S 1.379): 96 s; Induction time ([2]; 400 rpm, initial neomycin 40 g kg^−1, S 1.48): 83 s; Induction time ([2]; 400 rpm, initial neomycin 40 g kg^−1, S 1.66): 76 s; Induction time ([2]; 400 rpm, initial neomycin 40 g kg^−1, S 1.9): 72 s; Induction time ([2]; 450 rpm, initial neomycin 50 g kg^−1, S 1.351): 90 s; Induction time ([2]; 450 rpm, initial neomycin 50 g kg^−1, S 1.408): 84 s; Induction time ([2]; 450 rpm, initial neomycin 50 g kg^−1, S 1.47): 77 s; Induction time ([2]; 450 rpm, initial neomycin 50 g kg^−1, S 1.666): 70 s; Induction time ([2]; 450 rpm, initial neomycin 50 g kg^−1, S 1.785): 64 s
